How the values were obtained:
Assay type in all cases: biochemical
recombinant Aurora A = target: T1, recombinant Aurora A (Homo sapiens, UniProt O14965); assay: Aurora A (Aurora 2) inhibition assay, Z'-Lyte kinase assay; settings: ATP 10 μM, 1 h; less than or equal to 100 nM
T1 construct: purchased Upstate, Lake Placid, N.Y
T1 sequence (O14965 1-403): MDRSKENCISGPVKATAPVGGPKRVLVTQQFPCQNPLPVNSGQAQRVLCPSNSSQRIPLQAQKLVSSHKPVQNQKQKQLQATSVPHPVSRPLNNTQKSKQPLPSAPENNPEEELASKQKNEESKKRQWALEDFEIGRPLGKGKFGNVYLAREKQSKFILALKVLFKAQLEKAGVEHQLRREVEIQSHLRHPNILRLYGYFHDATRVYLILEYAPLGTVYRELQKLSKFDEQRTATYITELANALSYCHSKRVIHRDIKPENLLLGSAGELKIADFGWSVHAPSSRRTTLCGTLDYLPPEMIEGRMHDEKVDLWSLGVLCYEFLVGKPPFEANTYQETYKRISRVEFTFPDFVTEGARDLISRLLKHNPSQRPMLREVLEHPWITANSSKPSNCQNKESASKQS
Experimental: Compounds were tested for their potency against recombinant Aurora A (Upstate, Lake Placid, N.Y.) using the PanVera Z′-Lyte kinase assay kit-Ser/Thr 1 peptide (Invitrogen, Carlsbad, Calif.). Assays were carried out in kinase assay buffer (50 mM HEPES, pH 7.5, 10 mM MgCl2, 5 mM EGTA, 0.05% Brij-35, 2 mM DTT). Test compounds were initially dissolved in DMSO at 100× the highest tested concentration, then serially diluted to 4× test concentrations in kinase assay buffer. Next, Aurora A (final concentration 200-500 ng/mL), Z′-Lyte Ser/Thr 1 peptide (final concentration 2 μM) and ATP (final concentration 10 μM) were added according to the manufacturer's instructions. Assays were carried out in half-area 96-well white polystyrene assay plates (Corning, Corning, N.Y.) in a final volume of 20 μl. The reaction was allowed to proceed for 1 h at room temperature in the dark, at which point the development reagent and stop reagent were added according to the manufacturer's instructions. Coumarin (Ex. 400 nm, Em. 465 nm) and fluorescein (Ex. 400 nm, Em. 565 nm) fluorescence values were measured on a SpectraFluor Plus plate reader (Tecan, Durham, N.C.). The emission ratio (coumarin/fluorescein) was determined and used to calculate the percent phosphorylation for each well. Wells containing substrate but no kinase and wells containing a phosphopeptide control were used to set 0% and 100% phosphorylation values, respectively. Typically 20-40% of the substrate was phosphorylated in wells without inhibitor. Dose-response curves of relative Aurora A activity vs. inhibitor concentration were plotted with Grafit (Erithacus Software, Horley, Surrey, UK).

Aurora B kinase = target: T2, Aurora B kinase (Homo sapiens, UniProt Q96GD4); assay: Aurora B (Aurora 1) inhibition assay, Z'-Lyte kinase assay; settings: ATP 50 μM, 16 h; less than or equal to 100 nM
T2 construct: purchased BPS Biosciences, San Diego, Calif
T2 sequence (Q96GD4 whole entry): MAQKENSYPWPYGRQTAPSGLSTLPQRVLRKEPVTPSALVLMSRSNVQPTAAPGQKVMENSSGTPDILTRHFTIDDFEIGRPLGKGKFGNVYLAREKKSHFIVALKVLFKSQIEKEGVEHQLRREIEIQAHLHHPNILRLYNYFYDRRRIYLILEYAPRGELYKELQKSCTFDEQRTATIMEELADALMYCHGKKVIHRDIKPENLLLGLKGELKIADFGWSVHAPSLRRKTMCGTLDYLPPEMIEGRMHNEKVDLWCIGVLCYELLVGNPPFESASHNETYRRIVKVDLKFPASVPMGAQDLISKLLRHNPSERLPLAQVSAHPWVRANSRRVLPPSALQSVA

[1] = target: T3, N-terminal His-tagged human Src (Homo sapiens, UniProt P12931); assay: Src kinase inhibition assay (33P-ATP filter assay); settings: 40 minutes, room temperature; less than or equal to 100 nM
T3 construct: His (N); purchased Upstate USA Inc, Charlottesville, Va
T3 sequence (P12931 whole entry): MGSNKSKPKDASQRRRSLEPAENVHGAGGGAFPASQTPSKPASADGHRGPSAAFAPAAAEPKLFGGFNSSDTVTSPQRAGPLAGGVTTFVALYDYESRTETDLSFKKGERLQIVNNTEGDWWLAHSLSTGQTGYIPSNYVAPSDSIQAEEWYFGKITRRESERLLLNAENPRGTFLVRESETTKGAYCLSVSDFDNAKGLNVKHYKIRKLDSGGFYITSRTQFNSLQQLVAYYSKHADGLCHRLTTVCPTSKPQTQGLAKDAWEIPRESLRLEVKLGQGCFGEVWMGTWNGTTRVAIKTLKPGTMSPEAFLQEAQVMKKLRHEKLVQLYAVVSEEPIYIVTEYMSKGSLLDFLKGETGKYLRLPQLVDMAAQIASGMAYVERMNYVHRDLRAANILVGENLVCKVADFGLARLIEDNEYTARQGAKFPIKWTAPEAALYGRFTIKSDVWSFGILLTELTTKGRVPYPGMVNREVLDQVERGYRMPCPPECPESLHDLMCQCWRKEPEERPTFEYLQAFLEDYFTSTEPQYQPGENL
Experimental: Compounds were assayed for Src kinase inhibitory activity using N-terminal His-tagged human Src (Upstate USA Inc, 706 Forest Street, Charlottesville, Va.). Serial dilutions of compound were assayed in a final reaction volume of 25 μL by incubating a solution of the above Src kinase (5-10 mU), 8 mM MOPS (3-(N-morpholino)propanesulfonic acid) pH 7.0, 0.2 mM EDTA (ethylenediamine tetracetic acid), 250 μM amino acid sequence KVEKIGEGTYGVVYK (Upstate USA Inc, 706 Forest Street, Charlottesville, Va.), and 10 mM magnesium acetate and [γ-^33P-ATP] (specific activity of about 500 cpm/pmol, concentration as required). The reaction was initiated by the addition of the magnesium acetate and [γ-^33P-ATP] mixture. After incubation for 40 minutes at room temperature, the reaction was stopped by the addition of 5 μL of a 3% phosphoric acid solution. A 10 μL aliquote of the reaction was then spotted onto a P30 filtermat (PerkinElmer, Wellesley, Mass.) and washed three times for five minutes in 75 mM phosphoric acid and once in methanol prior to drying and scintillation counting. Inhibition of Src activity was determined by comparison to assays that contained no inhibitor.

[2] = target: T4, N-terminal GST-tagged recombinant human Flt3, residues 564-end (Homo sapiens, UniProt P36888); assay: Flt3 kinase inhibition assay (33P-ATP filter assay); settings: 40 minutes, room temperature; less than or equal to 100 nM
T4 construct: recombinant human Flt3, residues 564-end; GST (N); purchased Upstate USA Inc, Charlottesville, Va
T4 sequence (P36888 564-993 limits assumed): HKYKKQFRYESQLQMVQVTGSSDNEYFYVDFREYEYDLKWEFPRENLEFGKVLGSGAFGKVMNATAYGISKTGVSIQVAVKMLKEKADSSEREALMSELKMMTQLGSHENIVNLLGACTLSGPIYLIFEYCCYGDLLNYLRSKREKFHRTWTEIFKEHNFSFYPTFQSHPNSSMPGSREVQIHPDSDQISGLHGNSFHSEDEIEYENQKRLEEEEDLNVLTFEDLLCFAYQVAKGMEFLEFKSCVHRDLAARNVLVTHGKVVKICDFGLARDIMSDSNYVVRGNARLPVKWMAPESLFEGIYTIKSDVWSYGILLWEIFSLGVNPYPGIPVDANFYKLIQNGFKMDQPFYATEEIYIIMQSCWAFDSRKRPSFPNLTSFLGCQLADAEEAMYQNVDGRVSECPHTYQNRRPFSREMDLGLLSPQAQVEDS
Experimental: (§1) Compounds were assayed for Flt3 kinase inhibitory activity using N-terminal GST-tagged recombinant human Flt3, residues 564-end (Upstate USA Inc, 706 Forest Street, Charlottesville, Va.). Serial dilutions of compound were assayed in a final reaction volume of 25 μL by incubating a solution of the above Flt3 kinase (5-10 mU), 8 mM MOPS (3-(N-morpholino)propanesulfonic acid) pH 7.0, 0.2 mM EDTA (ethylenediamine tetracetic acid), 50 μM amino acid sequence EAIYAAPFAKKK (Upstate USA Inc, 706 Forest Street, Charlottesville, Va.), and 10 mM magnesium acetate and [γ-^33P-ATP] (specific activity of about 500 cpm/pmol, concentration as required). The reaction was initiated by the addition of the magnesium acetate and [γ-^33P-ATP] mixture. After incubation for 40 minutes at room temperature, the reaction was stopped by the addition of 5 μL of a 3% phosphoric acid solution. A 10 μL aliquote of the reaction was then spotted onto a P30 filtermat (PerkinElmer, Wellesley, Mass.) and washed three times for five minutes in 75 mM phosphoric acid and once in methanol prior to drying and scintillation counting. Inhibition of Flt3 activity was determined by comparison to assays that contained no inhibitor.

[3] = target: T5, N-terminal His6-tagged recombinant human KDR, residues 790-end (Homo sapiens, UniProt P35968); assay: KDR kinase inhibition assay (33P-ATP filter assay); settings: 40 minutes, room temperature; less than or equal to 100 nM
T5 construct: recombinant human KDR, residues 790-end; His6 (N); purchased Upstate USA Inc, Charlottesville, Va
T5 sequence (P35968 790-1356 limits assumed): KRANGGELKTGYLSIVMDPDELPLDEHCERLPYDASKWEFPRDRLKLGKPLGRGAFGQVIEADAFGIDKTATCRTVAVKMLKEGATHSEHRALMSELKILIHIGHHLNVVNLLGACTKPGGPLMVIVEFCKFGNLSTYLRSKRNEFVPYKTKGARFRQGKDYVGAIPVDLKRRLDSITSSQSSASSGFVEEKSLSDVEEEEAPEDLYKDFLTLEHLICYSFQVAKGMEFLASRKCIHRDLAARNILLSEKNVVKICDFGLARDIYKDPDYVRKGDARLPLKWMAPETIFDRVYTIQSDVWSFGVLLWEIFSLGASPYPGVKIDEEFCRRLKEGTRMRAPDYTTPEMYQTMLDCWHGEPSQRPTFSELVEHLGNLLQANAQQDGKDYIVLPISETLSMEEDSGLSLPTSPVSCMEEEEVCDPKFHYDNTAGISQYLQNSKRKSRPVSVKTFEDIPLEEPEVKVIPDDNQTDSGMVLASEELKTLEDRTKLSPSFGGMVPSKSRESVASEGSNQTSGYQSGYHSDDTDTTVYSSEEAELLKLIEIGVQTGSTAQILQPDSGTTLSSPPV
Experimental: as §1, with “KDR” for “Flt3”, “His6-tagged” for “GST-tagged”, “KDR,” for “Flt3,”, “790-end” for “564-end”, “0.33 mg/mL myelin basic protein” for “50 μM amino acid sequence EAIYAAPFAKKK”

| IC50 (recombinant Aurora A) [nM] | IC50 (Aurora B kinase) [nM] | IC50 [1] [nM] | IC50 [2] [nM] | IC50 [3] [nM] | SMILES |
| --- | --- | --- | --- | --- | --- |
| ≤ 100 | ≤ 100 | ≤ 100 | ≤ 100 | ≤ 100 | Cc1cc(Nc2cc(N3CCC(N4CCOCC4)CC3)nc(/C=C/c3ccccc3)n2)n[nH]1 [Compound 7, (E)-N-(5-methyl-1H-pyrazol-3-yl)-6-(4-morpholinopiperidin-1-yl)-2-styrylpyrimidin-4-amine] |
| ≤ 100 | ≤ 100 | ≤ 100 | ≤ 100 | ≤ 100 | Cc1cc(Nc2cc(N3CC(O)(C4CC4)C3)nc(/C=C/c3ccccc3)n2)n[nH]1 [Compound 3, (E)-3-cyclopropyl-1-(6-(5-methyl-1H-pyrazol-3-ylamino)-2-styrylpyrimidin-4-yl)azetidin-3-ol] |
| ≤ 100 | – | ≤ 100 | ≤ 100 | ≤ 100 | Cc1cc(Nc2cc(N3CCN(CCN4CCOCC4)CC3)nc(/C=C/c3ccccc3)n2)n[nH]1 [Compound 13, (E)-N-(5-methyl-1H-pyrazol-3-yl)-6-(4-(2-morpholinoethyl)piperazin-1-yl)-2-styrylpyrimidin-4-amine] |
| ≤ 100 | – | ≤ 100 | ≤ 100 | ≤ 100 | Cc1cc(Nc2cc(N3CC(N4CCCCC4)C3)nc(/C=C/c3ccccc3)n2)n[nH]1 [Compound 18, (E)-N-(5-methyl-1H-pyrazol-3-yl)-6-(3-(piperidin-1-yl)azetidin-1-yl)-2-styrylpyrimidin-4-amine] |
